Test results published in paper PMC11219871, “Epigenetic-based differentiation therapy for Acute Myeloid Leukemia” (Nature Communications, 2024).
≈ marks a conversion by molar mass, not a printed value. Where “and” joins values, the source holds several entries; their conditions need not be identical. Identical values can stand only once.

How the values were obtained:
Kinetic solubility = type: physicochemical; conditions: PBS buffer, aqueous buffer, kinetic from dmso stock, pH 7.4, PBS
Procedure: This study was conducted at Wuxi (http://www.wuxi.com/). Stock solutions of test compounds (10 mM; 100% DMSO) and 490 μL of PBS buffer at pH = 7.4 were added in the lower chamber of Whatman’s Mini-Uniprep vials. After vortex mixing for ≥2 min, the vials were shaken at 800 rpm for 24 h and finally centrifuged at 1520 g for 20 min. The concentration of the filtrate was quantified by HPLC (calibration curve from 1.5624 μM to 200 μM). Amiodarone hydrochloride, carbamazepine and chloramphenicol were used as controls.

ML-2 = experiment: q-RT-PCR of MYC, CDKN2A, CDKN1A, GATA2, TAL1, CEBPA, SPI1; type: cell-based, human
Procedure: (§1) RNA was extracted with TRIzol Reagent (Invitrogen) according to the manufacturer’s instructions. First, cDNA was synthesized from 1 µg of total RNA using the PrimeScript RT reagent Kit (Perfect Real Time) (Cat No RR037A, TaKaRa) following the manufacturer’s instructions. The quality of cDNA was checked by a multiplex PCR that amplifies PBGD, ABL, BCR and β2-MG genes. […] The following program conditions were used for the q-PCR: 50 °C for 2 min, 95 °C for 60 s following by 45 cycles at 95 °C for 15 s and 60 °C for 60 s; melting program, one cycle at 95 °C for 15 s, 40 °C for 60 s, and 95 °C for 15 s. The relative expression of each gene was quantified by the […] method using the gene GUS as an endogenous control. The sequence of primers used can be found in Supplementary Table 10.

HL-60 = experiment: as above; type: cell-based, human
Procedure: as §1

MOLM-13 = experiment: as above; type: cell-based, human
Procedure: as §1

[1] = test system: MOLM-13 i.v. in BALB/cA Rag2-/-γc-/- mice; experiment: Intravenous xenograft model (survival, CD11b in blood, body weight); type: in vivo, mouse; conditions: for Body weight: intravenous MOLM-13 AML mouse model, individual mice
Procedure: (§2) The human AML MV4-11 and MOLM-13 xenograft mice models were generated by intravenous (i.v.) injection of 10 × 10^6 (MV4-11) or 1 × 10^4 (MOLM-13) cells diluted in 100 µL of saline solution in the tail vein of a 6-8-week-old female BALB/cA Rag2^−/−γc^−/− mice (n = 10). Treatment started 7 or 1 day after MV4-11 or MOLM-13 cells injection, respectively. MV4-11 and MOLM-13 mice were treated with i.p. 10 mg/kg of CM-444 and CM-1758 during 5 consecutive days followed by 2 resting days for 7 and 2 weeks, respectively. The control group received only 80% saline solution, 10% DMSO and 10% Tween 20 (diluents of CM-444 and CM-1758). The mice weight was controlled and remained stable during the treatment. Statistical results were calculated using the statistical software Medcalc. CD11b levels in blood samples from an intravenous MV4-11 mice model were measured by flow cytometry, as described above.

[2] = test system: MV4-11 i.v. in BALB/cA Rag2-/-γc-/- mice; experiment: as above; type: in vivo, mouse; conditions: for body weight of mice: intravenous MV4-11 AML mouse model, individual mice
Procedure: as §2

HDAC10 = target: T1, HDAC10 (Homo sapiens, UniProt Q969S8); experiment: HDAC assay (Eurofins); type: biochemical
T1 construct: purchased Eurofins (contracted assay service)
T1 sequence (Q969S8 1-669): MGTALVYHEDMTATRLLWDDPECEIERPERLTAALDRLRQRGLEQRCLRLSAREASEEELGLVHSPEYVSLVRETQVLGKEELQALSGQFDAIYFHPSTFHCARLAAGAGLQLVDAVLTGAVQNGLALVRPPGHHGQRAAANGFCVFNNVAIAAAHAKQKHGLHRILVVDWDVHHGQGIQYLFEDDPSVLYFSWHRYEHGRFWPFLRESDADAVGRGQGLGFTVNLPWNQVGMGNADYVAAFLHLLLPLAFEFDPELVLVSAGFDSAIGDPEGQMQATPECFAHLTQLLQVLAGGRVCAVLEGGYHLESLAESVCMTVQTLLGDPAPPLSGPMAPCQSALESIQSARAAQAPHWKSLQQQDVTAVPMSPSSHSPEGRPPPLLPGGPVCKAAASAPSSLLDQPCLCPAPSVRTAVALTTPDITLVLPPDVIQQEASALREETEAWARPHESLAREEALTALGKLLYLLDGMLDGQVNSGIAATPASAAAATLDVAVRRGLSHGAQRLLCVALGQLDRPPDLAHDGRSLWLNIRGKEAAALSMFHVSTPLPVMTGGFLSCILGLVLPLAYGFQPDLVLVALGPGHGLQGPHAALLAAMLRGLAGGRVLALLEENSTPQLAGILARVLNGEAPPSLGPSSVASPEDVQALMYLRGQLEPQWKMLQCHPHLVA

[3] = ML-2, replicates 1-3 (Figure 2E)
[4] = ML-2, replicates 1-3 (Figure 2G)
[5] = ML-2 treated daily for 48 h, replicates (Fig 6G)
[6] = HL-60, replicates 1-3 (Figure 2E)
[7] = HL-60, replicates 1-3 (Figure 2G)
[8] = HL-60 treated daily for 48 h, replicates (Fig 6F)
[9] = MOLM-13, daily treatment for 48 h, replicates 1-3

COc1cc2nc(-c3ccc(C)o3)cc(NCC3CCN(c4ncc(C(=O)NO)cn4)CC3)c2cc1OC [CM-444, 2-[4-[[[6,7-dimethoxy-2-(5-methyl-2-furyl)-4-quinolyl]amino]methyl]-1-piperidyl]pyrimidine-5-carbohydroxamic acid]
solubility at 24 h (Kinetic solubility): 118 µg/mL (≈ 227 µM) | q-PCR of CDKN1A (p21), log10 (2-ΔΔCt) (ML-2; [3]): 1.227 and 1.353 and 1.599 | q-PCR of CDKN2A (p16), log10 (2-ΔΔCt) (ML-2; [3]): 0.6515 and 0.5026 and 0.5454 | q-PCR of MYC, log10 (2-ΔΔCt) (ML-2; [3]): -1.502 and -1.26 and -1.4 | q-PCR of CEBPA, log10 (2-ΔΔCt) (ML-2; [4]): 0.9236 and 1.002 and 0.879 | q-PCR of GATA2, log10 (2-ΔΔCt) (ML-2; [4]): 2.413 and 2.636 and 2.689 | q-PCR of SPI1 (PU.1), log10 (2-ΔΔCt) (ML-2; [4]): 0.5237 and 0.6236 and 0.7619 | q-PCR of TAL1 (SCL), log10 (2-ΔΔCt) (ML-2; [4]): 0.9258 and 1.226 and 0.9453 | q-PCR of CEBPA (ML-2; [5]): 1.15 log10 (2-ΔΔCt) and 1.105 log10 (2-ΔΔCt) and 1.112 log10 (2-ΔΔCt) | q-PCR of GATA2 (ML-2; [5]): 1.841 log10 (2-ΔΔCt) and 1.852 log10 (2-ΔΔCt) and 1.8708 log10 (2-ΔΔCt) | q-PCR of MYC (ML-2; [5]): -0.8138 log10 (2-ΔΔCt) and -0.7958 log10 (2-ΔΔCt) and -0.772 log10 (2-ΔΔCt) | q-PCR of SPI1 (ML-2; [5]): 0.6179 log10 (2-ΔΔCt) and 0.715 log10 (2-ΔΔCt) and 0.7068 log10 (2-ΔΔCt) | q-PCR of TAL1 (ML-2; [5]): 0.9832 log10 (2-ΔΔCt) and 1.433 log10 (2-ΔΔCt) and 0.7663 log10 (2-ΔΔCt) | q-PCR of CDKN1A (p21), log10 (2-ΔΔCt) (HL-60; [6]): 1.981 and 1.653 and 1.57 | q-PCR of CDKN2A (p16), log10 (2-ΔΔCt) (HL-60; [6]): 0.3125 and 0.3822 and 0.4047 | q-PCR of MYC, log10 (2-ΔΔCt) (HL-60; [6]): -0.5893 and -0.4826 and -0.451 | q-PCR of CEBPA, log10 (2-ΔΔCt) (HL-60; [7]): 0.7569 and 0.6258 and 0.5709 | q-PCR of GATA2, log10 (2-ΔΔCt) (HL-60; [7]): 1.013 and 0.858 and 0.8451 | q-PCR of SPI1 (PU.1), log10 (2-ΔΔCt) (HL-60; [7]): 0.7127 and 0.6825 and 0.8316 | q-PCR of TAL1 (SCL), log10 (2-ΔΔCt) (HL-60; [7]): 0.1258 and 0.2369 and 0.3382 | q-PCR of CEBPA (HL-60; [8]): 1.462 log10 (2-ΔΔCt) and 1.7754 log10 (2-ΔΔCt) and 1.81 log10 (2-ΔΔCt) | q-PCR of GATA2 (HL-60; [8]): 0.8764 log10 (2-ΔΔCt) and 0.8459 log10 (2-ΔΔCt) and 0.7844 log10 (2-ΔΔCt) | q-PCR of MYC (HL-60; [8]): -0.6475 log10 (2-ΔΔCt) and -0.7277 log10 (2-ΔΔCt) and -0.6044 log10 (2-ΔΔCt) | q-PCR of SPI1 (HL-60; [8]): 0.6661 log10 (2-ΔΔCt) and 0.715 log10 (2-ΔΔCt) and 0.8576 log10 (2-ΔΔCt) | q-PCR of TAL1 (HL-60; [8]): 2.167 log10 (2-ΔΔCt) and 1.539 log10 (2-ΔΔCt) and 2.185 log10 (2-ΔΔCt) | q-PCR of CEBPA, log10 (2-ΔΔCt) (MOLM-13; [9]): 2.5418 and 2.486 and 2.37 | q-PCR of GATA2, log10 (2-ΔΔCt) (MOLM-13; [9]): 1.451 and 1.32 and 1.2001 | q-PCR of MYC, log10 (2-ΔΔCt) (MOLM-13; [9]): -0.5166 and -0.6125 and -0.4922 | q-PCR of SPI1, log10 (2-ΔΔCt) (MOLM-13; [9]): 0.3255 and 0.2581 and 0.1964 | q-PCR of TAL1, log10 (2-ΔΔCt) (MOLM-13; [9]): 1.582 and 1.681 and 1.836 | CDKN1A log10 (2-ΔΔCt) (MOLM-13; MOLM-13, q-PCR): 0.9026 and 0.7158 and 0.9504 | CDKN2A log10 (2-ΔΔCt) (MOLM-13; MOLM-13, q-PCR): 0.7237 and 0.7926 and 0.8396 | CEBPA log10 (2-ΔΔCt) (MOLM-13; MOLM-13, q-PCR): 1.789 and 1.635 and 1.622 | GATA2 log10 (2-ΔΔCt) (MOLM-13; MOLM-13, q-PCR): 0.9826 and 1.026 and 1.05 | MYC log10 (2-ΔΔCt) (MOLM-13; MOLM-13, q-PCR): -0.5821 and -0.5713 and -0.4455 | SPI1 log10 (2-ΔΔCt) (MOLM-13; MOLM-13, q-PCR): 0.02369 and 0.04258 and 0.1281 | TAL1 log10 (2-ΔΔCt) (MOLM-13; MOLM-13, q-PCR): 1.526 and 1.626 and 1.825 | overall survival (OS) ([1]; MOLM-13 i.v., 10 mg/kg i.p., 5 days on/2 off, 2 weeks): not having observed an increase in OS | Body weight ([1]; day 4): 22.8 and 24 (2×) and 25 and 23.7 and 22.6 (2×) and 23.6 and 23 and 25.3 | Body weight ([1]; day 6, in g (unit assumed)): 23.1 and 23.8 and 23.5 and 25 and 24.1 and 23.2 and 23 and 22.6 and 22 and 26.2 | Body weight ([1]; day 8): 22 (2×) and 23.1 and 23.6 and 24.1 and 23.2 and 22.9 and 22.7 and 22.6 and 25.8 | Body weight ([1]; day 11): 21.7 and 22.4 and 23 and 24.4 and 22.3 and 22.8 and 22.2 (2×) and 21.4 and 24.5 | Body weight ([1]; day 13): 22.1 (2×) and 23 and 23.1 and 24 and 22.7 and 22.9 and 22.3 and 21.2 and 24.8 | CD11b in blood samples ([2]; MV4-11 i.v., 10 mg/kg i.p.): statistically significant increase in CD11b | overall survival (OS) ([2]; MV4-11 i.v., 10 mg/kg i.p., 5 days on/2 off, 7 weeks): increased overall survival | body weight of mice ([2]; day 20): 26 (2×) and 24.2 and 24.3 and 23.2 and 24.5 (2×) and 25.1 and 24.8 and 27 and 25.7 and 24 | body weight of mice ([2]; day 23): 26.5 and 24.3 (3×) and 24.7 and 23.9 and 25.1 and 25.2 and 24.9 and 24.6 and 27.6 and 26.2 | body weight of mice ([2]; day 25): 26.4 and 24.4 and 24.5 and 23.9 and 24.8 (2×) and 25.1 (2×) and 23.7 and 27.9 and 26.1 and 24.2 | body weight of mice ([2]; day 28): 25.9 and 24.3 and 24.1 (2×) and 22 and 24.6 (2×) and 25.3 and 25.1 and 27.9 and 26.2 and 24.2 | body weight of mice ([2]; day 30): 26.4 and 24 (2×) and 23.8 and 20.4 and 24.3 and 25 and 24.7 and 24.2 and 27.6 and 25.5 and 24.5 | body weight of mice ([2]; day 31): 25.8 and 24.8 (2×) and 24.4 and 22.9 and 25.7 and 24.5 and 23.7 and 27.3 and 24.6 and 24.7 | body weight of mice ([2]; day 35): 26.1 (2×) and 23.9 and 23.7 and 24.1 and 25.9 and 24.3 and 24.7 and 26.6 and 25 | body weight of mice ([2]; day 37): 26.5 and 24.6 and 24.4 and 25 (3×) and 27.2 (2×) and 27.7 and 27 | body weight of mice ([2]; day 42): 25.9 and 24.4 and 22.5 and 24.3 (2×) and 27 and 25.2 and 26.9 and 27.3 | CD11b levels in blood samples ([2]; mice engrafted intravenously with MV4-11 cells, individual mice (Fig 3E)): 7.18% and 15.3% and 22.1% and 21.14% and 13% and 34.5% and 22% and 9.14% and 7.78% | Survival time (Kaplan-Meier, event = 1) ([2]; mice engrafted with MV4-11 cells intravenously, individual mice (Fig 3D)): 32 days and 46 days and 48 days and 51 days and 53 days and 54 days | IC50 (HDAC10): 0.015 µM | inhibition at 10 µM (HDAC10; 10 µM): 96%
